Source: PMC6078800 (Nature biotechnology, 2018)

Columns and labels:
Mp-KYNase = target: T1, Mp-KYNase (Mucilaginibacter paludis, UniProt H1YAV1); assay: absorbance at […] nm, initial rates, Michaelis-Menten fit; assay type: biochemical; conditions: DPBS pH 7.4; enzyme PLP-loaded; not PEGylated
T1 sequence (H1YAV1 1-429): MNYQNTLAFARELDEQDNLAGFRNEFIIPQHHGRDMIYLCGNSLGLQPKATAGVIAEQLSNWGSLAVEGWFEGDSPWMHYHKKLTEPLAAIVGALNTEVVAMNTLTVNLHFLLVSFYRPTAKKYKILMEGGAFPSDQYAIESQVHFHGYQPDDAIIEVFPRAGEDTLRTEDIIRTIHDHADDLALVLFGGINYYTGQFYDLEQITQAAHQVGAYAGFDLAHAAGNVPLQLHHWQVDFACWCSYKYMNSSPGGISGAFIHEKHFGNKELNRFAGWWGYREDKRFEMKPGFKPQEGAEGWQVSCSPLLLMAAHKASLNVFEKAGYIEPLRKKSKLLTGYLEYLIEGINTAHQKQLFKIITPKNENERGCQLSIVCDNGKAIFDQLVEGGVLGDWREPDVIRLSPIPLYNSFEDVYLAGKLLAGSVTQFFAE

Pf-KYNase = target: T2, Pf-KYNase (Pseudomonas fluorescens, UniProt P83788); assay: as above; assay type: biochemical; conditions: DPBS pH 7.4; enzyme PLP-loaded; not PEGylated
T2 sequence (P83788 1-416): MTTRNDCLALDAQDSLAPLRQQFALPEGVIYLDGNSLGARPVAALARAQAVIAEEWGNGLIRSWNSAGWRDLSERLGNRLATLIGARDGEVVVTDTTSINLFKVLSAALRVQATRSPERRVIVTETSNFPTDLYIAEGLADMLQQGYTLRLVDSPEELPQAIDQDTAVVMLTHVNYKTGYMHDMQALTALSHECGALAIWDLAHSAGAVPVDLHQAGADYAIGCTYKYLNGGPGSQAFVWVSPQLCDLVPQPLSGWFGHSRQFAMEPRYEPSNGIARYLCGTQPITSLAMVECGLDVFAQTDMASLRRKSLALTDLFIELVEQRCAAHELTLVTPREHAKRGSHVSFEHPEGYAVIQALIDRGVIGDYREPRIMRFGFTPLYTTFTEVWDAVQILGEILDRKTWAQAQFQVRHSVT

With Nc1ccccc1C(=O)C[C@H](N)C(=O)O [kynurenine] the KM (Mp-KYNase) was “kinetic parameters for the kynureninase enzymes against both kynurenine (Kyn, Sigma)” and the KM (Pf-KYNase) was “kinetic parameters for the kynureninase enzymes against both kynurenine (Kyn, Sigma)”.
